Common to all, as to format: cell-based
One experiment concerns the target T1, human TLR9 (Homo sapiens, UniProt Q9NR96).
T1 construct: host or cells: HEK-Blue cells
T1 sequence (Q9NR96 26-1032): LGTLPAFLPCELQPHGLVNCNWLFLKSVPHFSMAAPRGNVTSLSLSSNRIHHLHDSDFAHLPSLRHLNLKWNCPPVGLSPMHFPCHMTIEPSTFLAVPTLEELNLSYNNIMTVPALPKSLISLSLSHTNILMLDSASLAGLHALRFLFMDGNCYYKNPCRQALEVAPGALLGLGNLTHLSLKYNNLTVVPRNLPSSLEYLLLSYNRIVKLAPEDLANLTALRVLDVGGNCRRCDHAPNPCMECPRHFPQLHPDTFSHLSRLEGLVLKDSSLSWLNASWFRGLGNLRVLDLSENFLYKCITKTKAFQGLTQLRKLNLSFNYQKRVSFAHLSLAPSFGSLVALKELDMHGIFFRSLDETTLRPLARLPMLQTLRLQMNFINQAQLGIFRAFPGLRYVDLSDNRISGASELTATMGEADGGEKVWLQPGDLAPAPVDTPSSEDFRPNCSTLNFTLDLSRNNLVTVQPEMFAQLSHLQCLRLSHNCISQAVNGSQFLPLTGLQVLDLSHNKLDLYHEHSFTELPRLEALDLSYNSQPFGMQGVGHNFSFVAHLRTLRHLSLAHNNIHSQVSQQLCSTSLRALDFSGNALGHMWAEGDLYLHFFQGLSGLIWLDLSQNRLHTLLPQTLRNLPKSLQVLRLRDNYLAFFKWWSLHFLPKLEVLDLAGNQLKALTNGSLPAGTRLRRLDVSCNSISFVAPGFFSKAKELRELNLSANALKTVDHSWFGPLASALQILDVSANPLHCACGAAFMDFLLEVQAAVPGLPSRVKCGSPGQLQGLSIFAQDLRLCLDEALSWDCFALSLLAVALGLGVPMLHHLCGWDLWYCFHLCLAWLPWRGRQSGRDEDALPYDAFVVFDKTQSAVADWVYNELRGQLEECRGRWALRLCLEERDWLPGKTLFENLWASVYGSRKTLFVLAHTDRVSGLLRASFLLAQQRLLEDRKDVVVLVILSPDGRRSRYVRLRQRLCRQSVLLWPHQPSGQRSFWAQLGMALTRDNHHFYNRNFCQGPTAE
The experiment in a line: TLR9 inhibition reporter assay (HEK-Blue cells, SEAP reporter, ODN2006 stimulation). To be noted: HEK-Blue cells overexpressing human TLR9, SEAP reporter, ODN2006 5 nM. A digest of the protocol:
(§1)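 Dose–response from 0.05 nM to 50 μM was run in HEK-Blue human TLR7, TLR8 and TLR9 reporter cells. After 30 min at room temperature with compound, ligand was added (TLR7 gardiquimod 7.5 μM; TLR8 R848 15.9 μM; TLR9 ODN2006 5 nM) and SEAP measured next day, at 22 h.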
In general terms: Reporter assays use an easily measured gene product as a stand-in for the process of interest.

A further experiment addresses T2, human TLR7 (Homo sapiens, UniProt Q9NYK1).
T2 construct: host or cells: HEK-Blue cells
T2 sequence (Q9NYK1 27-1049): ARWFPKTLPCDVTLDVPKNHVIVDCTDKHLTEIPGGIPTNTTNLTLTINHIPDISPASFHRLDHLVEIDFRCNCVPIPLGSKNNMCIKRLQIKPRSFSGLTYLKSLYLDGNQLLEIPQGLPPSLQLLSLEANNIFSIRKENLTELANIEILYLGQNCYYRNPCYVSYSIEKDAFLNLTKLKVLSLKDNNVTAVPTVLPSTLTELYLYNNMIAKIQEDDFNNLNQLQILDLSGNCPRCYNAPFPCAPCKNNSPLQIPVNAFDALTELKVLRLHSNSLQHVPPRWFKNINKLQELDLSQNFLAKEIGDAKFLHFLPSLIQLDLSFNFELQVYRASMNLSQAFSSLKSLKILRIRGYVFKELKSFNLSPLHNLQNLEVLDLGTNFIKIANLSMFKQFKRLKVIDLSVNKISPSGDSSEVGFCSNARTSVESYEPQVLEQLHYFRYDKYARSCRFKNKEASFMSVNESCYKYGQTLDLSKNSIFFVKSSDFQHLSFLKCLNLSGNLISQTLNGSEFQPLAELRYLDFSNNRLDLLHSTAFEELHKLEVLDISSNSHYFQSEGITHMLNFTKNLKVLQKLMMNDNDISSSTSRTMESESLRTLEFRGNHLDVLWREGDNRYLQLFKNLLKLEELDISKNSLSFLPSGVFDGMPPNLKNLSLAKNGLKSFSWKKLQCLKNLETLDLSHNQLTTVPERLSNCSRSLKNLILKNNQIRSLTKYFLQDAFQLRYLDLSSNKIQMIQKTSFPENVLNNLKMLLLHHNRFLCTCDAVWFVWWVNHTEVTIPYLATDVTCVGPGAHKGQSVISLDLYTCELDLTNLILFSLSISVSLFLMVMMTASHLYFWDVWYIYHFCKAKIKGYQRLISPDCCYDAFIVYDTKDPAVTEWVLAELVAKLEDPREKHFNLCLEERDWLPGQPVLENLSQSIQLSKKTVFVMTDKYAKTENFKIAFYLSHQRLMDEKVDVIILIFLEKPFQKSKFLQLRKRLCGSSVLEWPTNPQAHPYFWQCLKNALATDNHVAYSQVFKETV
The experiment can be described thus: TLR7 inhibition reporter assay (HEK-Blue cells, SEAP reporter, gardiquimod stimulation). To be noted: HEK-Blue cells overexpressing human TLR7, SEAP reporter, gardiquimod 7.5 μM; read-out: TLR7 IC50. The method, boiled down:
as §1

A further experiment addresses T3, human TLR8 (Homo sapiens, UniProt Q9NR97).
T3 construct: host or cells: HEK-Blue cells
T3 sequence (Q9NR97 27-1041): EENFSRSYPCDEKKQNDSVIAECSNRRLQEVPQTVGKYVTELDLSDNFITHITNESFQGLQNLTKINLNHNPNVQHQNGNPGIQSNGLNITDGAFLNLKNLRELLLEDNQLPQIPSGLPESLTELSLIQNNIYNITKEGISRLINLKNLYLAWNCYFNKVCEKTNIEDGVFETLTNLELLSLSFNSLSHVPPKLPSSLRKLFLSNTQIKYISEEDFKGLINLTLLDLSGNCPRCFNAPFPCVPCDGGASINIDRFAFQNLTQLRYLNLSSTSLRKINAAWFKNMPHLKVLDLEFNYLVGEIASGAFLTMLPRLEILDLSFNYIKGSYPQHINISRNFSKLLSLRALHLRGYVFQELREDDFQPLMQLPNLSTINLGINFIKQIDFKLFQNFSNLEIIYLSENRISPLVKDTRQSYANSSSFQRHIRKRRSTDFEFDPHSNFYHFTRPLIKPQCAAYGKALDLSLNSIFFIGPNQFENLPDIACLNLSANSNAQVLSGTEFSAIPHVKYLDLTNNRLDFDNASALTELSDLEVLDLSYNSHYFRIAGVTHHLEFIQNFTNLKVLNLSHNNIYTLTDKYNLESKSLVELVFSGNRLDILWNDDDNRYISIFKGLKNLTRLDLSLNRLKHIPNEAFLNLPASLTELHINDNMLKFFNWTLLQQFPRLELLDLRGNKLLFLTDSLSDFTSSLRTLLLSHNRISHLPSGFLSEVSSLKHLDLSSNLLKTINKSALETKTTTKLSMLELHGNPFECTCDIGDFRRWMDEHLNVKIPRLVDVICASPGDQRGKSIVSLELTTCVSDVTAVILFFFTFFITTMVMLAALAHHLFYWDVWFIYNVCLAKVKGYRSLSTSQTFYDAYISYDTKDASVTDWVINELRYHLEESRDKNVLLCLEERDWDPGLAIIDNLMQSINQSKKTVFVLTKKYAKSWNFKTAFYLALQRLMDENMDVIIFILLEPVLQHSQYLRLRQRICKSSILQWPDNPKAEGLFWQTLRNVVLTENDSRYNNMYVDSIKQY
The experiment in a line: TLR8 inhibition reporter assay (HEK-Blue cells, SEAP reporter, R848 stimulation). To be noted: HEK-Blue cells overexpressing human TLR8, SEAP reporter, R848 15.9 μM; read-out: TLR8 IC50. The method, boiled down:
as §1

For the molecule `CNCCNC1CCC(c2nc3c(C(C)C)c(-c4cc(OC)c5ncnn5c4)[nH]c3s2)CC1` (single isomer, unassigned) [Example 171, N1-(4-(6-isopropyl-5-(8-methoxy-[1,2,4]triazolo[1,5-a]pyridin-6-yl)-4H-pyrrolo[3,2-d]thiazol-2-yl)cyclohexyl)-N2-methylethane-1,2-diamine], the values for the IC50 on human TLR9, on human TLR7 and at human TLR8 were 879 nM, 0.78 nM and 2.21 nM, respectively.
`CC(C)c1c(-c2cn(C)c3ncccc23)[nH]c2sc(C3CCC(NCC4(C)COC4)CC3)nc12` (single isomer, unassigned) [Example 172, 4-(6-isopropyl-5-(1-methyl-1H-pyrrolo[2,3-b]pyridin-3-yl)-4H-pyrrolo[3,2-d]thiazol-2-yl)-N-((3-methyloxetan-3-yl)methyl)cyclohexan-1-amine]: the IC50 (as a rule, the concentration that gives 50% inhibition) against human TLR9 came out at 14800 nM; on human TLR7, 2.84 nM; on human TLR8 it was 1.22 nM.
Turning to `CC(C)c1c(-c2cn(C)c3ncccc23)[nH]c2sc(C3CCC(NCC4(C)COC4)CC3)nc12` (single isomer, unassigned) [Example 173, 4-(6-isopropyl-5-(1-methyl-1H-pyrrolo[2,3-b]pyridin-3-yl)-4H-pyrrolo[3,2-d]thiazol-2-yl)-N-((3-methyloxetan-3-yl)methyl)cyclohexan-1-amine], the IC50 stood at 7790 nM on human TLR9, 8.56 nM on human TLR7 and 7.58 nM at human TLR8.
In the case of `CCN(C)C1CCC(c2nc3c(C(C)C)c(-c4cn(C)c5ncccc45)[nH]c3s2)CC1` (single isomer, unassigned) [Example 174, N-ethyl-4-(6-isopropyl-5-(1-methyl-1H-pyrrolo[2,3-b]pyridin-3-yl)-4H-pyrrolo[3,2-d]thiazol-2-yl)-N-methylcyclohexan-1-amine], the figures for the IC50 against human TLR9, on human TLR7 and at human TLR8 were 16000 nM, 1.84 nM and 3.13 nM, respectively.
On the same counts, the results for `CCN(C)C1CCC(c2nc3c(C(C)C)c(-c4cn(C)c5ncccc45)[nH]c3s2)CC1` (single isomer, unassigned) [Example 175, N-ethyl-4-(6-isopropyl-5-(1-methyl-1H-pyrrolo[2,3-b]pyridin-3-yl)-4H-pyrrolo[3,2-d]thiazol-2-yl)-N-methylcyclohexan-1-amine] are 6250 nM, 3.76 nM and 6.23 nM.
`CC(C)c1c(-c2cn(C)c3ncccc23)[nH]c2sc(C3CCC(NC45CC(C4)C5)CC3)nc12` (single isomer, unassigned) [Example 176, N-(4-(6-isopropyl-5-(1-methyl-1H-pyrrolo[2,3-b]pyridin-3-yl)-4H-pyrrolo[3,2-d]thiazol-2-yl)cyclohexyl)bicyclo[1.1.1]pentan-1-amine]: the concentration for half-maximal inhibition (IC50) against human TLR9 was determined as 9580 nM; on human TLR7, 23.3 nM; at human TLR8, 23.7 nM.
On to `CC(C)c1c(-c2cn(C)c3ncccc23)[nH]c2sc(C3CCC(NC45CC(C4)C5)CC3)nc12` (single isomer, unassigned) [Example 177, N-(4-(6-isopropyl-5-(1-methyl-1H-pyrrolo[2,3-b]pyridin-3-yl)-4H-pyrrolo[3,2-d]thiazol-2-yl)cyclohexyl)bicyclo[1.1.1]pentan-1-amine], for which the IC50 is 9790 nM against human TLR9, 3.23 nM at human TLR7 and 5.63 nM at human TLR8.
Turning to `CC(C)c1c(-c2cn(C)c3ncccc23)[nH]c2sc(C3CCC(NC4COC4)CC3)nc12` (single isomer, unassigned) [Example 178, N-(4-(6-isopropyl-5-(1-methyl-1H-pyrrolo[2,3-b]pyridin-3-yl)-4H-pyrrolo[3,2-d]thiazol-2-yl)cyclohexyl)oxetan-3-amine], the IC50 at human TLR9 amounted to 6710 nM; on human TLR7 it was 1.69 nM; on human TLR8 it was 2.44 nM.
Regarding `CC(C)c1c(-c2cn(C)c3ncccc23)[nH]c2sc(C3CCC(NC4COC4)CC3)nc12` (single isomer, unassigned) [Example 179, N-(4-(6-isopropyl-5-(1-methyl-1H-pyrrolo[2,3-b]pyridin-3-yl)-4H-pyrrolo[3,2-d]thiazol-2-yl)cyclohexyl)oxetan-3-amine], the IC50 against human TLR9 came to 7260 nM; on human TLR7, 9.72 nM; on human TLR8 it was 13.5 nM.
For the molecule `CC(C)c1c(-c2cn(C)c3ncccc23)[nH]c2sc(C3CCC(N4CC5(COC5)C4)CC3)nc12` (single isomer, unassigned) [Example 180, 6-(4-(6-isopropyl-5-(1-methyl-1H-pyrrolo[2,3-b]pyridin-3-yl)-4H-pyrrolo[3,2-d]thiazol-2-yl)cyclohexyl)-2-oxa-6-azaspiro[3.3]heptane], the IC50 against human TLR9 amounted to 5280 nM; at human TLR7, 3.54 nM; on human TLR8 it was 3.7 nM.
